Assay results as given in patent US5328902A, “7-(substituted)-9-[(substituted glycyl)amido]-6-demethyl-6-deoxytetracyclines” (American Cyanamid Co., priority 1992, dated 1994).
Like-named read-outs stand apart in the source and are kept apart here.

Legend:
S. aureus NEMC 8769 = test: MIC, agar dilution; type: cell-based
E. coli ATCC 25922 = test: MIC, agar dilution; type: cell-based
E. coli J2175 = test: MIC, agar dilution; type: cell-based
S. aureus ATCC 29213 = test: MIC, agar dilution; type: cell-based
[1] = system: S. aureus UBMS 88-5 Tet M; test: microbe, parasite or virus in culture; type: cell-based
E. coli UBMS 90-5 = test: MIC, agar dilution; type: cell-based
Enterococcus 12201 = test: MIC, agar dilution; type: cell-based
S. aureus UBMS 88-4 = test: MIC, agar dilution; type: cell-based
S. aureus SMITH (MP) = test: MIC, agar dilution; type: cell-based
E. coli UBMS 90-4 Tet M = test: microbe, parasite or virus in culture; type: cell-based
S. mariescens FPOR 8733 = test: MIC, agar dilution; type: cell-based
[2] = system: Ps. acruginosa ATCC 27853; test: MIC, agar dilution; type: cell-based
S. aureus UBMS 90-3 = test: MIC, agar dilution; type: cell-based
[3] = system: E. coli MC 4100 TNIOC Tet B; test: microbe, parasite or virus in culture; type: cell-based
E. coli UBMS 89-1 Tet M = test: microbe, parasite or virus in culture; type: cell-based
E. coli J3272 Tet sens. = test: MIC, agar dilution; type: cell-based; conditions: Escherichia coli, 18 h, read-out: MIC
[4] = system: S. hemolyticus AVHAH 88-3; test: MIC, agar dilution; type: cell-based
E. coli BAJ9003 IMP MUT = test: microbe, parasite or virus in culture; type: cell-based
S. aureus IVES 2943 = test: MIC, agar dilution; type: cell-based
E. coli UBMS 88-1 Tet B = test: microbe, parasite or virus in culture; type: cell-based
[5] = system: S. aureus UBMS 88-7 Tet K; test: microbe, parasite or virus in culture; type: cell-based
E. faecalis ATCC 29212 = test: MIC, agar dilution; type: cell-based
[6] = system: E. coli UBMS 89-2 Tet sens.; test: MIC, agar dilution; type: cell-based
E. coli #311 (MP) = test: MIC, agar dilution; type: cell-based
S. aureus IVES 1 983 = test: MIC, agar dilution; type: cell-based
[7] = system: S. aureus UBMS 90-1 Tet M; test: microbe, parasite or virus in culture; type: cell-based
E. coli PRP1 Tet A = test: microbe, parasite or virus in culture; type: cell-based
E. coli J3272 Tet D = test: microbe, parasite or virus in culture; type: cell-based
E. coli J3272 Tet C = test: microbe, parasite or virus in culture; type: cell-based; conditions: Escherichia coli, J3272TETC, 18 h
S. aureus ROSE (MP) = test: MIC, agar dilution; type: cell-based
[8] = system: S. aureus UBMS 90-2 Tet M; test: microbe, parasite or virus in culture; type: cell-based
[9] = system: Wild Type S30 (wild type ribosomes, E. coli strain MRE600, tetracycline sensitive); test: E. coli in vitro protein translation system, wild type S30
[10] = system: X. maltophilia NEMC 87210; test: MIC, agar dilution; type: cell-based
[11] = system: E. coli MC 4100 Tet sens.; test: MIC, agar dilution; type: cell-based
[12] = Escherichia coli, ATCC25922, 18 h
[13] = Staphylococcus aureus, UBMS885TETM, 18 h
[14] = Escherichia coli, UBMS905, 18 h, read-out: MIC
[15] = Staphylococcus aureus, UBMS884, 18 h
[16] = Staphylococcus aureus, UBMS903, 18 h
[17] = Escherichia coli, UBMS891TETM, 18 h
[18] = Escherichia coli, BAJ9003IMPMUT, 18 h
[19] = Staphylococcus aureus, IVES2943, 18 h
[20] = Escherichia coli, UBMS881TETB, 18 h
[21] = Enterococcus faecalis, ATCC29212, 18 h
[22] = Staphylococcus aureus, IVES1983, 18 h
[23] = Staphylococcus aureus, UBMS901TETM, 18 h
[24] = Escherichia coli, J3272TETD, 18 h
[25] = Staphylococcus aureus, UBMS902TETM, 18 h
[26] = E. coli UBMS 88-1 Tet B, 18 hours at 35° C.

CN(C)[C@@H]1C(=O)C(C(N)=O)=C(O)[C@@]2(O)C(=O)C3=C(O)c4c(O)cccc4[C@@](C)(O)[C@H]3C[C@@H]12 [N, Tetracycline]
0.25 µg/mL: MIC (E. coli BAJ9003 IMP MUT; [18])
16 µg/mL: MIC (E. coli UBMS 90-4 Tet M; Escherichia coli, UBMS904TETM, 18 h)
1 µg/mL: MIC (E. coli J2175; Escherichia coli, J2175, 18 h) | MIC (E. coli UBMS 90-5; [14]) | MIC ([6]; Escherichia coli, 18 h) | MIC (E. coli #311 (MP); Escherichia coli, 18 h)
0.03 µg/mL: MIC (S. aureus NEMC 8769; Staphylococcus aureus, NEMC8769, 18 h)
0.5 µg/mL: MIC (E. coli ATCC 25922; [12]) | MIC (E. coli J3272 Tet sens.) | MIC ([4]; Streptococcus pyogenes, AVHAH883, 18 h)
8 µg/mL: MIC ([2]; 18 h) | MIC (E. coli UBMS 89-1 Tet M; [17]) | MIC (E. faecalis ATCC 29212; [21])
0.06 µg/mL: MIC (S. aureus ATCC 29213; Staphylococcus aureus, ATCC29213, 18 h) | MIC (S. aureus UBMS 88-4; [15]) | MIC (S. aureus SMITH (MP); Staphylococcus aureus, 18 h) | MIC (S. aureus UBMS 90-3; [16])
32 µg/mL: MIC (Enterococcus 12201; Enterococcus, 12201, 18 h) | MIC (S. mariescens FPOR 8733; 18 h, read-out: MIC) | MIC [7, 23] | MIC (E. coli PRP1 Tet A; Escherichia coli, PRP1TETA, 18 h) | MIC [8, 25]
> 32 µg/mL: MIC [1, 13] | MIC ([3]; Escherichia coli, 18 h) | MIC (S. aureus IVES 2943; [19]) | MIC (E. coli UBMS 88-1 Tet B; [20]) | MIC ([5]; Staphylococcus aureus, UBMS887TETK, 18 h) | MIC (S. aureus IVES 1 983; [22]) | MIC (E. coli J3272 Tet D; [24]) | MIC (E. coli J3272 Tet C) | MIC (S. aureus ROSE (MP); Staphylococcus aureus, 18 h)

CN(C)c1ccc(O)c2c1C[C@H]1C[C@H]3[C@H](N(C)C)C(O)=C(C(N)=O)C(=O)[C@@]3(O)C(O)=C1C2=O [O, Minocycline, reference compound]
8 µg/mL: MIC ([2]; 18 h) | MIC ([3]; Escherichia coli, 18 h) | MIC (E. coli UBMS 89-1 Tet M; [17]) | MIC (E. coli J3272 Tet D; [24])
2 µg/mL: MIC (S. mariescens FPOR 8733; 18 h, read-out: MIC) | MIC (S. aureus IVES 2943; [19]) | MIC (S. aureus IVES 1 983; [22]) | MIC (E. coli J3272 Tet C) | MIC [8, 25]
0.03 µg/mL: MIC (S. aureus ATCC 29213; Staphylococcus aureus, ATCC29213, 18 h, S. aureus ATCC 29213, read-out: MIC) | MIC (S. aureus UBMS 88-4; [15]) | MIC (S. aureus SMITH (MP); Staphylococcus aureus, 18 h, S. aureus SMITH (MP), read-out: MIC) | MIC (S. aureus UBMS 90-3; [16]) | MIC (E. coli BAJ9003 IMP MUT; [18])
0.5 µg/mL: MIC (E. coli ATCC 25922; [12]) | MIC (E. coli J2175; Escherichia coli, J2175, 18 h) | MIC (E. coli UBMS 90-5; [14]) | MIC (E. coli J3272 Tet sens.) | MIC ([6]; Escherichia coli, 18 h) | MIC (S. aureus ROSE (MP); Staphylococcus aureus, 18 h)
78%: % Inhibition Wild Type S30 ([9]; Conc. 0.06 mg/ml)
< 0.015 µg/mL: MIC (S. aureus NEMC 8769; Staphylococcus aureus, NEMC8769, 18 h, S. aureus NEMC 8769, read-out: MIC)
1 µg/mL: MIC (E. faecalis ATCC 29212; [21])
effectively inhibit protein synthesis: inhibition of protein synthesis occuring on wild type ribosomes ([9]; coupled transcription and translation system)
4 µg/mL: MIC [1, 13] | MIC [7, 23]
98%: % Inhibition Wild Type S30 ([9]; Conc. 1.0 mg/ml)
0.25 µg/mL: MIC (E. coli #311 (MP); Escherichia coli, 18 h)
16 µg/mL: MIC (E. coli UBMS 88-1 Tet B; [20])

CN(C)c1cc(NC(=O)CNCCCCO)c(O)c2c1C[C@H]1C[C@H]3[C@H](N(C)C)C(O)=C(C(N)=O)C(=O)[C@@]3(O)C(O)=C1C2=O [R]
32 µg/mL: MIC (E. coli ATCC 25922; E. coli ATCC 25922) | MIC ([1]; S. aureus UBMS 88-5 Tet M) | MIC (E. coli UBMS 89-1 Tet M; E. coli UBMS 89-1 Tet M) | MIC ([4]; S. hemolyticus AVHAH 88-3) | MIC ([5]; S. aureus UBMS 88-7 Tet K) | MIC (E. coli #311 (MP); E. coli #311 (MP)) | MIC ([7]; S. aureus UBMS 90-1 Tet M)
4 µg/mL: MIC (E. coli BAJ9003 IMP MUT; E. coli BAJ9003 IMP MUT)
8 µg/mL: MIC (S. aureus NEMC 8769; S. aureus NEMC 8769) | MIC (Enterococcus 12201; Enterococcus 12201) | MIC (S. aureus UBMS 88-4; S. aureus UBMS 88-4) | MIC (S. aureus SMITH (MP); S. aureus SMITH (MP)) | MIC [10] | MIC (S. mariescens FPOR 8733) | MIC (S. aureus UBMS 90-3; S. aureus UBMS 90-3) | MIC (E. faecalis ATCC 29212; E. faecalis ATCC 29212) | MIC [11] | MIC (E. coli J3272 Tet D; E. coli J3272 Tet D)
> 32 µg/mL: MIC ([2]; Ps. acruginosa ATCC 27853) | MIC (S. aureus IVES 2943; S. aureus IVES 2943) | MIC (E. coli UBMS 88-1 Tet B; [26]) | MIC (S. aureus IVES 1 983; S. aureus IVES 1 983) | MIC (S. aureus ROSE (MP); S. aureus ROSE (MP))
16 µg/mL: MIC (S. aureus ATCC 29213; S. aureus ATCC 29213) | MIC ([8]; S. aureus UBMS 90-2 Tet M)

CN(C)c1cc(NC(=O)CNCCF)c(O)c2c1CC1CC3C(N(C)C)C(O)=C(C(N)=O)C(=O)C3(O)C(O)=C1C2=O (stereo not drawn) [T, [4S-(4alpha,12aalpha)]-4,7-Bis(dimethylamino)-9-[[[(2-fluoroethyl)amino]acetyl]amino]-1,4,4a,5,5a,6,11,12a-octahydro3,10,12,12a-tetrahydroxy-1,11-dioxo-2-naphthacenecarboxamide]
4 µg/mL: MIC (S. aureus NEMC 8769; S. aureus NEMC 8769) | MIC (S. aureus ATCC 29213; S. aureus ATCC 29213) | MIC ([1]; S. aureus UBMS 88-5 Tet M) | MIC (S. aureus UBMS 88-4; S. aureus UBMS 88-4) | MIC ([7]; S. aureus UBMS 90-1 Tet M) | MIC ([8]; S. aureus UBMS 90-2 Tet M)
8 µg/mL: MIC (E. coli ATCC 25922; E. coli ATCC 25922) | MIC (E. coli UBMS 90-4 Tet M; E. coli UBMS 90-4 Tet M) | MIC (E. coli UBMS 89-1 Tet M; E. coli UBMS 89-1 Tet M) | MIC ([4]; S. hemolyticus AVHAH 88-3) | MIC (E. coli J3272 Tet D; E. coli J3272 Tet D)
1 µg/mL: MIC (S. aureus SMITH (MP); S. aureus SMITH (MP)) | MIC (E. coli BAJ9003 IMP MUT; E. coli BAJ9003 IMP MUT) | MIC (E. faecalis ATCC 29212; E. faecalis ATCC 29212)
16 µg/mL: MIC (E. coli J2175; E. coli J2175) | MIC (E. coli UBMS 90-5) | MIC [10] | MIC ([3]; E. coli MC 4100 TNIOC Tet B) | MIC (E. coli UBMS 88-1 Tet B; [26]) | MIC ([6]; E. coli UBMS 89-2 Tet sens.) | MIC (E. coli #311 (MP); E. coli #311 (MP))
> 32 µg/mL: MIC (S. mariescens FPOR 8733) | MIC ([2]; Ps. acruginosa ATCC 27853) | MIC (E. coli PRP1 Tet A; E. coli PRP1 Tet A)
2 µg/mL: MIC (Enterococcus 12201; Enterococcus 12201) | MIC (S. aureus UBMS 90-3; S. aureus UBMS 90-3) | MIC [11]
